Structures can show the parent of a compound that is named as a salt.

The melting point is the temperature of the solid-liquid transition. For the molecule `CCC(CC)(NC(=O)c1cnn2c1NC(c1ccccc1OC)CC2(C)C)c1ccc(C(F)(F)F)cc1` (stereo not drawn) [Example 590, N-(1-ethyl-1-(4-(trifluoromethyl)phenyl)propyl)-5-(2-methoxyphenyl)-7,7-dimethyl-4,5,6,7-tetrahydropyrazolo[1,5-a]pyrimidine-3-carboxamide], the melting point lay in the range of 211 to 213 °C.

For the molecule `CCC(CC)(NC(=O)c1c(C)nn2c1N[C@@H](c1ccccc1)CC2(C)C)c1ccc(I)cc1` (as salt: HCl) [Example 1073, (5R)-N-(1-ethyl-1-(4-iodophenyl)propyl)-2,7,7-trimethyl-5-phenyl-4,5,6,7-tetrahydropyrazolo[1,5-a]pyrimidine-3-carboxamide], the melting point was in the range of 179 to 180 °C.

Turning to `CCC(CC)(NC(=O)c1c(C)nn2c1NC(c1cccc(OC)c1)CC2(C)C)c1ccc(C)cc1` (stereo not drawn) (as salt: HCl) [Example 966, N-(1-ethyl-1-(4-methylphenyl)propyl)-5-(3-methoxyphenyl)-2,7,7-trimethyl-4,5,6,7-tetrahydropyrazolo[1,5-a]pyrimidine-3-carboxamide], the melting point is 146 °C.

For `CCC(CC)(NC(=O)c1cnn2c1NC(c1ccccc1)CC2(C)C)c1ccc(CCCO)cc1` (stereo not drawn) [Example 763, N-(1-ethyl-1-(4-(3-hydroxy-propyl)phenyl)propyl)-7,7-dimethyl-5-phenyl-4,5,6,7-tetrahydropyrazolo[1,5-a]pyrimidine-3-carboxamide], the melting point was in the range of 194 to 195 °C.

`O=C(CNC(=O)c1cnn2c1N[C@H](c1ccccc1)C[C@@H]2C(F)(F)F)c1cc2ccccc2o1` (stereo in doubt) [Example 285, N-(2-(1-benzofuran-2-yl)-2-oxoethyl)-5-phenyl-7-(trifluoromethyl)-4,5,6,7-tetrahydropyrazolo[1,5-a]pyrimidine-3-carboxamide] showed a melting point of 244 to 245 °C.

On to `CCC1(CC)C[C@@H](OCc2ccccc2)CN1C(=O)c1cnn2c1N[C@@H](c1ccccc1)CC2(C)C` [Example 1103, (5R)-3-(((4R)-4-(benzyloxy)-2,2-diethyl-1-pyrrolidinyl)carbonyl)-7,7-dimethyl-5-phenyl-4,5,6,7-tetrahydropyrazolo[1,5-a]pyrimidine], for which the melting point was 118 to 120 °C.

`CCC1(CC)CC(c2ccccc2)Nc2c(C(=O)O)cnn21` (stereo not drawn) [Example 37, 7,7-diethyl-5-phenyl-4,5,6,7-tetrahydropyrazolo[1,5-a]pyrimidine-3-carboxylic acid] gave a melting point of 158 to 160 °C.

`CC1(C)CC(c2ccccc2)Nc2c(C(=O)N(Cc3ccc(C(F)(F)F)cc3)Cc3ccc(C(F)(F)F)cc3)cnn21` (stereo not drawn) [Example 409, 7,7-dimethyl-5-phenyl-N,N-bis(4-(trifluoromethyl)benzyl)-4,5,6,7-tetrahydropyrazolo[1,5-a]pyrimidine-3-carboxamide] had a melting point of 164 to 165 °C.

On to `CCC(CC)(NC(=O)c1cnn2c1NC(c1ccccc1)CC2(C)C)c1ccc(O)cc1` (stereo not drawn) [Example 701, N-(1-ethyl-1-(4-hydroxyphenyl)propyl)-7,7-dimethyl-5-phenyl-4,5,6,7-tetrahydropyrazolo[1,5-a]pyrimidine-3-carboxamide], for which the melting point is 152 to 153 °C.

Regarding `CCC(CC)(NC(=O)c1cnn2c1NC(c1ccccc1O)CC2(C)C)c1ccc(C(F)(F)F)cc1` (stereo not drawn) [Example 629, N-(1-ethyl-1-(4-(trifluoro-methyl)phenyl)propyl)-5-(2-hydroxyphenyl)-7,7-dimethyl-4,5,6,7-tetrahydropyrazolo[1,5-a]pyrimidine-3-carboxamide], the melting point lay within 122 to 124 °C.

For `CC1(C)CC(c2ccccc2)Nc2c(C(=O)NC34CC5CC(CC(C5)C3)C4)cnn21` (stereo not drawn) [Example 374, N-(1-adamantyl)-7,7-dimethyl-5-phenyl-4,5,6,7-tetrahydropyrazolo[1,5-a]pyrimidine-3-carboxamide], the melting point was 235 to 236 °C.

Turning to `CCC(CC)(NC(=O)c1cnn2c1NC(c1ccccc1C)CC2(C)C)c1ccc(Cl)cc1` (stereo not drawn) [Example 697, N-(1-(4-chlorophenyl)-1-ethylpropyl)-7,7-dimethyl-5-(2-methylphenyl)-4,5,6,7-tetrahydropyrazolo[1,5-a]pyrimidine-3-carboxamide], the melting point was in the range of 143 to 145 °C.

Take `CCC(CC)(NC(=O)c1cnn2c1NC(c1ccccc1)CC2(C)C)c1ccc(N(C)C)cc1` (stereo not drawn) [Example 778, N-(1-(4-(dimethylamino)phenyl)-1-ethylpropyl)-7,7-dimethyl-5-phenyl-4,5,6,7-tetrahydropyrazolo[1,5-a]pyrimidine-3-carboxamide]: the melting point fell in the range of 128 to 129 °C.

In turn, `CCc1ccc(C(CC)(CC)NC(=O)c2cnn3c2NC(c2ccccc2)CC3(C)C)cc1` (stereo not drawn) [Example 647, N-(1-ethyl-1-(4-ethylphenyl)propyl)-7,7-dimethyl-5-phenyl-4,5,6,7-tetrahydropyrazolo[1,5-a]pyrimidine-3-carboxamide] returned a melting point of 156 to 157 °C.

As for `CCC1(NC(=O)c2cnn3c2NC(c2ccccc2)CC3(C)C)CCCCCC1` (stereo not drawn) [Example 622, N-(1-ethylcycloheptyl)-7,7-dimethyl-5-phenyl-4,5,6,7-tetrahydropyrazolo[1,5-a]pyrimidine-3-carboxamide], the melting point was 129 to 130 °C.

Turning to `CCC(CC)(NC(=O)c1cnn2c1N(C)C(c1ccccc1)CC2(C)C)c1ccc(C)cc1` (stereo not drawn) (as salt: HCl) [Example 827, N-(1-ethyl-1-(4-methylphenyl)propyl)-4,7,7-trimethyl-5-phenyl-4,5,6,7-tetrahydropyrazolo[1,5-a]pyrimidine-3-carboxamide], the melting point lay in the range of 120 to 121 °C.

Molecule `CCC1(CC)C[C@@H](OC)CN1C(=O)c1c(C)nn2c1N[C@@H](c1ccccc1)CC2(C)C` [Example 1099, (5R)-3-(((4R)-2,2-diethyl-4-methoxy-1-pyrralidinyl)carbanyl)-2,7,7-trimethyl-5-phenyl-4,5,6,7-tetrahydropyrazolo[1,5-a]pyrimidine] gave a melting point of 132 to 134 °C.

As to `COc1ccc(C(NC(=O)c2cnn3c2NC(c2ccccc2)CC3(C)C)c2ccc(OC)cc2)cc1` (stereo not drawn) [Example 407, N-(bis(4-methoxyphenyl)methyl)-7,7-dimethyl-5-phenyl-4,5,6,7-tetrahydropyrazolo[1,5-a]pyrimidine-3-carboxamide], the melting point is 184 to 185 °C.

Take `CCC(CC)(NC(=O)c1c(C)nn2c1N[C@H](c1ccccc1F)CC2(C)C)c1ccc(C)cc1` (as salt: HCl) [Example 1083, (5S)-N-(1-ethyl-1-(4-methylphenyl)propyl)-5-(2-fluorophenyl)-2,7,7-trimethyl-4,5,6,7-tetrahydropyrazolo[1,5-a]pyrimidine-3-carboxamide]: the melting point is 203 to 204 °C.

Molecule `CCC(CC)(NC(=O)c1cnn2c1NC(c1ccccc1)CC2(C)C)c1cccc(Br)c1` (stereo not drawn) [Example 613, N-(1-(3-bromophenyl)-1-ethylpropyl)-7,7-dimethyl-5-phenyl-4,5,6,7-tetrahydropyrazolo[1,5-a]pyrimidine-3-carboxamide] registered a melting point of 195 to 196 °C.

Turning to `CCC(CC)(NC(=O)c1cnn2c1N(Cc1ccccc1)C(c1ccccc1)CC2(C)C)c1ccc(C)cc1` (stereo not drawn) [Example 765, 4-benzyl-N-(1-ethyl-1-(4-methylphenyl)propyl)-7,7-dimethyl-5-phenyl-4,5,6,7-tetrahydropyrazolo[1,5-a]pyrimidine-3-carboxamide], the melting point lay in the range of 142 to 143 °C.

The record behind these values is patent US9447100B2, “Substituted pyrazolo[1,5-A] pyrimidines as calcium receptor modulating agents” (Takeda Pharmaceutical Company Limited, priority 2002, dated 2016).
